Data taken from US20140336136A1, “Carboxylated Stilbenes For Activating AMPK And Sirtuins” (Rahn AG, priority 2013, published 2014).
Marks after values point to notes of the source that are not given here.

Experiments:
[1] = test system: 5′-AMP-activated protein kinase (AMPK); assay: Western blot analysis of AMPK phosphorylation in NHEK; type: cell-based, human; conditions: for AMPK phosphorylation [% Control] / Ratio P-AMPK/GAPDH / P-AMPK: 1000 μM; for P-AMPK: 48 h
[2] = target: T1, human sirtuin-1 (Sirt1) (Homo sapiens, UniProt Q96EB6); assay: SIRT1 Fluorimetric Drug Discovery Kit, Sirt1 activation; type: biochemical; conditions: for Fold increase in sirtl activity versus control: 10 μM, control = trans-resveratrol
T1 construct: purchased BioMol, Hamburg, Germany
T1 sequence (Q96EB6 1-747): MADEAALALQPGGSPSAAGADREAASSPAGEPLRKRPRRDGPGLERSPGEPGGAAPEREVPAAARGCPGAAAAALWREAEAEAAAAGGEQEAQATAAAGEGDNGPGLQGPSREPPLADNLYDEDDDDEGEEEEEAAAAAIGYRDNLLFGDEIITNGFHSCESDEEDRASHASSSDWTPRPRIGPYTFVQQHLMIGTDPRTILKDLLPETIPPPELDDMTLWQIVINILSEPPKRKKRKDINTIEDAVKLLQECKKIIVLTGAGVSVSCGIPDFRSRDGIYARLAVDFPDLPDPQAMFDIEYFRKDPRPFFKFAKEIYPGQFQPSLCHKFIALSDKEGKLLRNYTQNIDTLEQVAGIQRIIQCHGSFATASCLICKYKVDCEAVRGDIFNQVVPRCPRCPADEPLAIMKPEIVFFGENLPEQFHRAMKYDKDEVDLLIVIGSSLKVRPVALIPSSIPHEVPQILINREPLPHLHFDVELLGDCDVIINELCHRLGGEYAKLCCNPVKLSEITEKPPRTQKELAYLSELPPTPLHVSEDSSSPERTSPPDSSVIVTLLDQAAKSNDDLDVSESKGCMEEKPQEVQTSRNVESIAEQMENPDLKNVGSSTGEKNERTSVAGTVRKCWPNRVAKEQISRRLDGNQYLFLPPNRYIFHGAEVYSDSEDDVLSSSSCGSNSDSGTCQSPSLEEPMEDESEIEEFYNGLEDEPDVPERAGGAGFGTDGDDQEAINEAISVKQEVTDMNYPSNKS
Description: Compounds were tested for Sirt1 activation using the SIRT1 Fluorimetric Drug Discovery Kit (BioMol, Hamburg, Germany), Testing was carried out in dubplicate following the manufacturer's instructions. Assay medium: 50 mM Tris-HCl pH 8.0, 137 mM NaCl, 2.7 mM KCl, 1 mM MgCl2, 1 mg/ml bovine serum albumin (BSA). Stock solutions of the test compounds (10 mM in DMSO) were used, yielding a final concentration of 10 μM in the assay plate. Readout was obtained by measuring the fluorescence in a microtiter plate reader (excitation: 380 nm; detection: 440 nm).
For this purpose, the test item stock solutions were diluted to yield concentrations of 0.3, 1, 3, 10 and 30 μM, respectively, in the assay, which was performed as described above. The compound of structure (I-1) was selected for this experiment.
Quantification using the GraphPad Prism 5.0 software (GraphPad Software, Inc., LaJolla, Calif., USA) led to the following EC300 values (i.e. the concentration that gave 3-times the basal response of the enzyme=activation by a factor of three):
The selectivity of the agonistic effect of the compound of formula (I-1) on different sirtuin isoforms was investigated. For this purpose, in vitro testing was performed as described in Example 1 using the respective SIRT1 Fluorimetric Drug Discovery Kit, SIRT2 Fluorimetric Drug Discovery Kit, and SIRT3 Fluorimetric Drug Discovery Kit (each from BioMol, Hamburg, Germany). […] The dose-response effect is slightly lesser on Sirt3.

[3] = target: T2, Sirt3 (Homo sapiens, UniProt Q9NTG7); assay: SIRT3 Fluorimetric Drug Discovery Kit, Sirt3 activation; type: biochemical; conditions: Example 2, Table 6
T2 construct: purchased BioMol, Hamburg, Germany
T2 sequence (Q9NTG7 1-399): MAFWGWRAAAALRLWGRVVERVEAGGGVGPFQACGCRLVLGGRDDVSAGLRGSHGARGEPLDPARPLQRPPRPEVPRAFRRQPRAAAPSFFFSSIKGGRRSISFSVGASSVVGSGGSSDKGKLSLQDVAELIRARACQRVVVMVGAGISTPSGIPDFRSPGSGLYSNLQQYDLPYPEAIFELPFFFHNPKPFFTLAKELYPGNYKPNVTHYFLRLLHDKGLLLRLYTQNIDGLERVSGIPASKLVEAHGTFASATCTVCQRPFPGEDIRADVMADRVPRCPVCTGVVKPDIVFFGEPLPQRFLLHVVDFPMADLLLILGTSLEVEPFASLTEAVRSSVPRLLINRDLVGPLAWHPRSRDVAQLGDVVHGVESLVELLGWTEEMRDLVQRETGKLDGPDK

[4] = target: T3, Sirt2 (Homo sapiens, UniProt Q8IXJ6); assay: SIRT2 Fluorimetric Drug Discovery Kit, Sirt2 activation; type: biochemical; conditions: Example 2, Table 6
T3 construct: purchased BioMol, Hamburg, Germany
T3 sequence (Q8IXJ6 1-389): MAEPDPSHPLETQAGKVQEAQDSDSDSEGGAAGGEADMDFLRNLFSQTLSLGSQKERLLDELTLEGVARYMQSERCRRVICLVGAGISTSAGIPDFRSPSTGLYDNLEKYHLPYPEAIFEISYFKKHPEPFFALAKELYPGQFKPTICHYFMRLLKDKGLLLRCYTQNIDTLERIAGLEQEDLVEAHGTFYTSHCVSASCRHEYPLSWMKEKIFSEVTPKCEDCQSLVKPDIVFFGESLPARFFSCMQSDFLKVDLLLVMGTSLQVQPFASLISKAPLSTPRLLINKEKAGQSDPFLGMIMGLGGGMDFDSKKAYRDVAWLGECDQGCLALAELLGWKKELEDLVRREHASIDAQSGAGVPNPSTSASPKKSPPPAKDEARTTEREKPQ

[5] = test system: normal human epidermal keratinocytes (NHEK); assay: MTT reduction cytotoxicity assay in NHEK; type: cell-based; conditions: for viability: NHEK
Description: Culture conditions: 37° C., 5% CO2. Culture medium: Keratinocyte-SFM (serum-free medium) containing human recombinant epidermal growth factor (EGF 1-53) 0.25 ng/mL and bovine pituitary extract 25 μg/mL (Gibco; Cat. No. 17005-075), supplemented with gentamycin 25 μg/mL. Assay medium: Keratinocyte-SFM (Gibco; Cat. No. 10744-019), supplemented with gentamycin 25 μg/mL.
NHEK were seeded in 24-well plates (30.000 cells/well) and cultured in culture medium for 24 h and then in assay medium for another 24 h. Medium was then removed and replaced by assay medium containing the respective test compound or reference in defined concentrations.
Cytotoxicity was determined using the 3-(4,5-dimethylthiazol-2-yl)-2,5-diphenyltetrazoliumbromid (MTT) reduction assay (sse T. Mosmann (1983) J. Immunol. Methods. 65, pp. 55-63).

[6] = test system: normal human dermal fibroblasts (NHDF); assay: Resazurin based cytotoxicity assay in NHDF; type: cell-based; conditions: 24 h and 48 h; 0.03 μM to 200 μM
Description: The effect of compound (I-1) on mitochondria biosynthesis was investigated in normal human dermal fibroblasts (NHDF). NHDF were obtained from PromoCell (Lot No. 006151; donor; from eyelid skin) and cultivated in Fibroblast Growth Medium (PromoCell; Cat. No. C-023020) supplemented with Supplement Mix (PromoCell; Cat. No. C-039215) at 37° C./5% CO2. NHDF were seeded in flat-bottom 96-well plates (5000 cells/well) and incubated in said medium for 24 h or 48 h, respectively, with the compounds present in concentrations ranging from 0.03 μM to 200 μM. Mitochondria content was analyzed using the Mito-ID® Green Detection Kit for fluorescence microscopy (Enzo Life Sciences; Cat. No. ENZ-51055-K500). Fluorometric analysis was done using a Spectramax plate reader (Molecular Devices) and following the manufacturer's protocol. Cytotoxicity was determined in parallel by fluorometric readout using the Resazurin Based In Vitro Toxicology Assay Kit (Sigma Aldrich, Cat. No. TOX-8), and following the manufacturer's protocol.

[7] = Example 1, concentration that gave 3-times the basal response of the enzyme

## NC(=O)c1ncn([C@@H]2O[C@H](CO)[C@@H](O)[C@H]2O)c1N [AICAR, 5-Amino-1-βD-ribofuranosyl-imidazole-4-carboxamide]
[1]; Experiment 1, Membrane 1
  AMPK phosphorylation [% Control]: 482 % Control
  Ratio P-AMPK/GAPDH: 2.05
  P-AMPK: 1060 AU/mm^2
[1]; Experiment 2
  AMPK phosphorylation [% Control]: 506 % Control
  Ratio P-AMPK/GAPDH: 0.572
  P-AMPK: 1377449 AU/mm^2

## O=C(O)c1c(O)cccc1/C=C/c1ccc(OC2OC(CO)C(O)C(O)C2O)cc1 (centres unmarked) [(I-5)]
[2]
  Fold increase in sirtl activity versus control: 2.7

## COc1cc(/C=C/c2cccc(O)c2C(=O)O)cc(OC)c1O [(I-4)]
[2]
  Fold increase in sirtl activity versus control: 2.0

## CCOC(=O)c1c(O)cccc1/C=C/c1ccc(OCC)cc1 [(I-1)]
[1]; NHEK, 30 μM
  AMPK phosphorylation: significantly enhanced
[3]
  EC300: >30* μM
[4]
  EC300: 4.9 µM
[2]
  Fold increase in sirtl activity versus control: 23.9
[2]; [7]
  EC300: 2.0 µM
[2]; Example 2, Table 6, Sirt1
  EC300: 12.9 µM
[5]
  cytotoxicity against NHEK: no cytotoxicity
[6]
  cytotoxicity / cell viability in NHDF: no cytotoxicity or loss of cell viability

## Oc1ccc(/C=C/c2cc(O)cc(O)c2)cc1 [trans-resveratrol]
[4]
  EC300: >30 µM
[2]; [7]
  EC300: > 30 µM
[2]; Example 2, Table 6, Sirt1
  EC300: >30 µM
[5]; 100 μM
  viability: 2%
[5]; 300 μM
  viability: 43%

## O=C(O)c1c(O)cccc1/C=C/c1ccc(O)cc1 [(I-2)]
[2]
  Fold increase in sirtl activity versus control: 4.8

## COC(=O)c1c(/C=C/c2ccc(OC)cc2)cccc1OC [(I-3)]
[2]
  Fold increase in sirtl activity versus control: 1.1
